The text below walks through data of patent US6124431A, “Peptide derivatives” (Teikoku Hormone Mfg. Co., Ltd., priority 1993, dated 2000).

The subject of this assay is mouse leukemia P388 cells. The assay can be described thus: Assay of antitumor activity (increase in life span of mice implanted with P388 leukemia). The assay is classed as in vivo. The settings on record: CDF1 mice, P388 cells implanted i.p.; compound i.p. on day 1 and day 5; observed for 60 days; ILS relative to dolastatin 10 = 100. Here is the method: (1) Assay of antitumor activity
0.1 ml (10^6 cells/mouse) portions of mouse leukemia P388 cells were implanted intraperitoneally into 7-week-old CDF1 mice. […] From the results were calculated increases in life span (ILS, %) according to the following equation. In the following equation, T means median survival days of the chemical administration group, and C means median survival days of the control group. [formula]
Antitumor activity is shown as the relative ratio in the case where the ILS of dolastatin 10 is supposed to be 100.

Turning to dolastatin 10, the “Antitumor activity (relative ratio of ILS, ILS of dolastatin 10 supposed to be 100)” value is given as 100.
